Values after ≈ are worked out from the molar mass of the structure shown.
Assays:
[1] = system: Streptococcus pyogenes A 77; experiment: MIC, standard strain 2; type: cell-based; conditions: A77, S. pyogenes A 77, two-fold dilution, Muller Hinton agar, 10^7 CFU/ml, 37° C., 18 hours, read-out: Minimal Inhibitory Concentration(MIC)
Method: (§1) In order to illustrate antibiotic effectiveness of the compounds of the present invention, the minimal inhibitory concentrations (MIC's) of the representative compounds were determined against standard strains and compared with ceftazidime and cefpirome, which were used as control compounds.
(§2) The MIC values were taken by employing a two-fold dilution method: that is, two-fold serial dilutions of each of the test compounds were made from initial concentration of […]; each 1.5 ml of them was dispersed in 13.5 ml of Muller Hinton agar medium to adjust to […]; the standard test strain which had the concentration of 10^7 CFU/ml was inoculated by medium;and these were incubated at 37° C. for 18 hours.
(§3) The test used twenty kinds of standard test strains which induced urinary tract infections, respiratory organ infections, skin soft tissue infections, plasma infections, gastrointestinal infections, central nervous system infections, most of which produce β-lactamase. The standard test strains used are as follows:
2. Streptococcus pyogenes A 77

[2] = system: Streptococcus faecium 8b; experiment: MIC, standard strain 3; type: cell-based; conditions: Enterococcus faecium; S. faecium 8b; two-fold dilution, Muller Hinton agar, 10^7 CFU/ml, 37° C., 18 hours; read-out: Minimal Inhibitory Concentration(MIC)
Method: as §1, §2, §3
3. Streptococcus faecium 8b

[3] = system: Staphylococcus aureus 285; experiment: MIC, standard strain 5; type: cell-based; conditions: Staphylococcus aureus; S. aureus 285; two-fold dilution, Muller Hinton agar, 10^7 CFU/ml, 37° C., 18 hours; read-out: Minimal Inhibitory Concentration(MIC)
Method: as §1, §2, §3
5. Staphylococcus aureus 285

[4] = system: Escherichia coli 0 55; experiment: MIC, standard strain 7; type: cell-based; conditions: 055, E. coli 0 55, two-fold dilution, Muller Hinton agar, 10^7 CFU/ml, 37° C., 18 hours, read-out: Minimal Inhibitory Concentration(MIC)
Method: as §1, §2
(§4) The test used twenty kinds of standard test strains which induced urinary tract infections, respiratory organ infections, skin soft tissue infections, plasma infections, gastrointestinal infections, central nervous system infections, most of which produce β-lactamase.

[5] = system: Escherichia coli 1507 E; experiment: MIC, standard strain 11; type: cell-based; conditions: E. coli 1507 E, two-fold dilution, Muller Hinton agar, 10^7 CFU/ml, 37° C., 18 hours, read-out: Minimal Inhibitory Concentration(MIC)
Method: as §1, §2, §4

[6] = system: Pseudomonas aeruginosa 1771M; experiment: MIC, standard strain 15; type: cell-based; conditions: 18 h, read-out: Minimal Inhibitory Concentration(MIC)
Method: as §1, §2, §3
15. Pseudomonas aeruginosa 1771M

[7] = system: Enterobacter cloacae 1321 E; experiment: MIC, standard strain 20; type: cell-based; conditions: E. cloacae 1321 E, two-fold dilution, Muller Hinton agar, 10^7 CFU/ml, 37° C., 18 hours, read-out: Minimal Inhibitory Concentration(MIC)
Method: as §1, §2, §3
20. Enterobacter cloacae 1321 E

[8] = system: ATCC; experiment: MIC, clinically separated strains; type: cell-based; conditions: 18 h; 20 strains
Method: as §2

[9] = system: D Streptococcus I; experiment: MIC, clinically separated strains; type: cell-based; conditions: 18 h
Method: as §2

[10] = system: Enterobactercloacas; experiment: MIC, clinically separated strains; type: cell-based; conditions: Enterobacter cloacae, 18 h, 20 clinical strains
Method: as §2

[11] = system: Enterococcus II; experiment: MIC, clinically separated strains; type: cell-based; conditions: 18 h
Method: as §2

[12] = system: Enterococcus I; experiment: MIC, clinically separated strains; type: cell-based; conditions: 18 h
Method: as §2

[13] = system: Escherichia coli; experiment: MIC, clinically separated strains; type: cell-based; conditions: 18 h
Method: as §2

[14] = system: Klebsiella oxytoca; experiment: MIC, clinically separated strains; type: cell-based; conditions: 18 h
Method: as §2

[15] = system: MRSA(KAIST); experiment: MIC, clinically separated strains; type: cell-based; conditions: Staphylococcus aureus, 18 h
Method: as §2

[16] = system: Methicillin Resistant; experiment: MIC, clinically separated strains; type: cell-based; conditions: 18 h, 19 clinical strains
Method: as §2

[17] = system: Morganella morganii; experiment: MIC, clinically separated strains; type: cell-based; conditions: 18 h
Method: as §2

[18] = system: Proteus mirabilis; experiment: MIC, clinically separated strains; type: cell-based; conditions: 18 h
Method: as §2

[19] = system: Proteus vulgaris; experiment: MIC, clinically separated strains; type: cell-based; conditions: 18 h
Method: as §2

[20] = system: Providencia rettgeri; experiment: MIC, clinically separated strains; type: cell-based; conditions: 18 h, read-out: range of MIC, 6 clinical strains
Method: as §2

[21] = system: Pseudomonas II; experiment: MIC, clinically separated strains; type: cell-based; conditions: 18 h
Method: as §2

[22] = system: Pseudomonas I; experiment: MIC, clinically separated strains; type: cell-based; conditions: 18 h
Method: as §2

[23] = system: Pseudomonas aeruginosa; experiment: MIC, clinically separated strains; type: cell-based; conditions: 18 h
Method: as §2

[24] = system: Serratia spp; experiment: MIC, clinically separated strains; type: cell-based; conditions: 18 h
Method: as §2

[25] = system: Streptococcus II; experiment: MIC, clinically separated strains; type: cell-based; conditions: 18 h
Method: as §2

[26] = system: D StreptococcusII; experiment: MIC, clinically separated strains; type: cell-based, D Streptococcus; conditions: Streptococcus, 18 h
Method: as §2

[27] = read-out: range of MIC, 20 clinical strains
[28] = read-out: range of MIC, 5 clinical strains

**Q.** What does the source list for `CO/N=C(\C(=O)N[C@@H]1C(=O)N2C(C(=O)[O-])=C(C[n+]3cccc4c3CCC4)CS[C@H]12)c1csc(N)n1` [cefpirome, reference compound]?
**A.** MIC [1]: 98 µg/mL (≈ 190 µM); MIC [2]: 25000 µg/mL (≈ 48600 µM); MIC [3]: 781 µg/mL (≈ 1520 µM); MIC [4]: 13 µg/mL (≈ 25.3 µM); MIC [5]: 75 µg/mL (≈ 146 µM); MIC [6]: 195 µg/mL (≈ 379 µM); MIC [7]: 13 µg/mL (≈ 25.3 µM); MIC50 [8]: 0.098 µg/mL (≈ 0.19 µM); MIC90 [8]: 25 µg/mL (≈ 48.6 µM); MIC50 ([9]; 20 clinical strains): 25 µg/mL (≈ 48.6 µM); MIC90 ([9]; 20 clinical strains): 50 µg/mL (≈ 97.2 µM); MIC [9, 27]: 12.5 to 100 µg/mL (≈ 24.3 to 194 µM); MIC ([10]; read-out: range of MIC): 0.013 to 1.56 µg/mL (≈ 0.0253 to 3.04 µM); MIC50 [10]: 0.025 µg/mL (≈ 0.0486 µM); MIC90 [10]: 0.098 µg/mL (≈ 0.19 µM); MIC50 ([11]; 20 clinical strains): 0.049 µg/mL (≈ 0.0952 µM); MIC90 ([11]; 20 clinical strains): 1.56 µg/mL (≈ 3.04 µM); MIC [11, 27]: 0.007 to 3.12 µg/mL (≈ 0.0136 to 6.07 µM); MIC50 ([12]; 20 clinical strains): 0.025 µg/mL (≈ 0.0486 µM); MIC90 ([12]; 20 clinical strains): 0.098 µg/mL (≈ 0.19 µM); MIC ([12]; read-out: range of MIC): 0.013 to 0.195 µg/mL (≈ 0.0253 to 0.379 µM); MIC50 ([13]; 20 clinical strains): 0.025 µg/mL (≈ 0.0486 µM); MIC90 ([13]; 20 clinical strains): 0.049 µg/mL (≈ 0.0952 µM); MIC [13, 27]: 0.025 to 0.391 µg/mL (≈ 0.0486 to 0.76 µM); MIC50 ([14]; 20 clinical strains): 0.025 µg/mL (≈ 0.0486 µM); MIC90 ([14]; 20 clinical strains): 0.781 µg/mL (≈ 1.52 µM); MIC [14, 27]: 0.007 to 0.391 µg/mL (≈ 0.0136 to 0.76 µM); MIC50 ([15]; 15 clinical strains): 12.5 µg/mL (≈ 24.3 µM); MIC90 ([15]; 15 clinical strains): 100 µg/mL (≈ 194 µM); MIC ([15]; read-out: range of MIC, 15 clinical strains): 0.781 to 100 µg/mL (≈ 1.52 to 194 µM); MIC ([16]; read-out: range of MIC): 0.781 to 100 µg/mL (≈ 1.52 to 194 µM); MIC50 [16]: 12.5 µg/mL (≈ 24.3 µM); MIC90 [16]: 100 µg/mL (≈ 194 µM); MIC50 ([17]; 5 clinical strains): 0.013 µg/mL (≈ 0.0253 µM); MIC90 ([17]; 5 clinical strains): 0.025 µg/mL (≈ 0.0486 µM); MIC [17, 28]: 0.013 to 0.025 µg/mL (≈ 0.0253 to 0.0486 µM); MIC50 ([18]; 4 clinical strains): 0.013 µg/mL (≈ 0.0253 µM); MIC90 ([18]; 4 clinical strains): 0.049 µg/mL (≈ 0.0952 µM); MIC ([18]; read-out: range of MIC, 4 clinical strains): 0.007 to 0.049 µg/mL (≈ 0.0136 to 0.0952 µM); MIC50 ([19]; 5 clinical strains): 0.049 µg/mL (≈ 0.0952 µM); MIC90 ([19]; 5 clinical strains): 0.098 µg/mL (≈ 0.19 µM); MIC [19, 28]: 0.025 to 0.098 µg/mL (≈ 0.0486 to 0.19 µM); MIC [20]: 0.004 to 0.098 µg/mL (≈ 0.00777 to 0.19 µM); MIC50 [21]: 1.56 µg/mL (≈ 3.04 µM); MIC90 [21]: 6.25 µg/mL (≈ 12.1 µM); MIC ([21]; read-out: range of MIC): 0.781 to 12.5 µg/mL (≈ 1.52 to 24.3 µM); MIC50 [22]: 1.56 µg/mL (≈ 3.04 µM); MIC90 [22]: 6.25 µg/mL (≈ 12.1 µM); MIC ([22]; read-out: range of MIC): 0.781 to 12.5 µg/mL (≈ 1.52 to 24.3 µM); MIC50 ([23]; 20 clinical strains): 3.12 µg/mL (≈ 6.07 µM); MIC90 ([23]; 20 clinical strains): 12.5 µg/mL (≈ 24.3 µM); MIC [23, 27]: 0.781 to 12.5 µg/mL (≈ 1.52 to 24.3 µM); MIC50 ([24]; 20 clinical strains): 0.049 µg/mL (≈ 0.0952 µM); MIC90 ([24]; 20 clinical strains): 0.098 µg/mL (≈ 0.19 µM); MIC [24, 27]: 0.025 to 0.049 µg/mL (≈ 0.0486 to 0.0952 µM); MIC50 ([25]; 17 clinical strains): 0.004 µg/mL (≈ 0.00777 µM); MIC90 ([25]; 17 clinical strains): 0.007 µg/mL (≈ 0.0136 µM); MIC ([25]; read-out: range of MIC, 17 clinical strains): 0.002 to 0.007 µg/mL (≈ 0.00389 to 0.0136 µM); MIC ([26]; read-out: range of MIC): 6.25 to 100 µg/mL (≈ 12.1 to 194 µM); MIC50 ([26]; 19 clinical strains): 50 µg/mL (≈ 97.2 µM); MIC90 ([26]; 19 clinical strains): 100 µg/mL (≈ 194 µM)

Reference: patent US5593985A, “Cephalosporin compounds” (priority 1994, dated 1997)
